Series [1] has as its system Trypanosoma cruzi. The experiment in a line: microbe, parasite or virus in culture. Format: functional, organism-based. The settings on record: MHOM/MX/1994/Ninoa, 48 h.
Description: Trypanocidal activity against Trypanosoma cruzi MHOM/MX/1994/Ninoa assessed as inhibition of parasite growth measured after 48 hrs by MTT assay
The test system of series [2] is Trypanosoma cruzi. Kind of series: microbe, parasite or virus in culture. Format: functional, organism-based. Conditions: ITRI/MX/2018/TH, 48 h.
Description: Trypanocidal activity against Trypanosoma cruzi ITRI/MX/2018/TH assessed as inhibition of parasite growth measured after 48 hrs by MTT assay
The nature of series [3]: Cytotoxicity against mouse J774.2 cells assessed as reduction in cell viability measured after 48 hrs by resazurin dye based assay.
The subject of series [4] is Trypanosoma cruzi. The experiment in a line: microbe, parasite or virus in culture. The format is functional, organism-based. Conditions: MHOM/MX/1994/Ninoa, 24 h.
Description: Antitrypanosomal activity against Trypanosoma cruzi MHOM/MX/1994/Ninoa infected in animal assessed as reduction in viable parasite in blood measured after 24 hrs by neubauer chamber assay
The nature of series [5]: in vitro. The settings on record: mouse.
Description: Selectivity index, ratio of CC50 for mouse J774.2 cells to IC50 for Trypanosoma cruzi MHOM/MX/1994/Ninoa
Series [6] can be described thus: in vitro. Conditions: mouse. This is another data set of the same source.
Description: Selectivity index, ratio of CC50 for mouse J774.2 cells to IC50 for Trypanosoma cruzi ITRI/MX/2018/TH

For orientation: IC50 means the concentration that gives 50% inhibition. Low readings indicate greater potency in that assay, high ones weaker potency in that assay. As a reminder, the CC50 is the concentration at which the toxic effect on the cells reaches its halfway point. As for `C#C[C@]1(O)CC[C@H]2[C@@H]3CC=C4C[C@@H](O[N+](=O)[O-])CC[C@]4(CO[N+](=O)[O-])[C@H]3CC[C@@]21C`, the IC50 in the series on Trypanosoma cruzi [1] is 2.8 µM; in the series with Trypanosoma cruzi [2], 321 µM; in the series with Trypanosoma cruzi [4], over 300 µM. In series [3] (J774.2 cells), the CC50 at 48 h stood at 39.8 µM. Besides, the results for the selectivity ratio in “in vitro [5]” (J774.2 cells) and in the series “in vitro [6]” (J774.2 cells) were 14.2 and 0.13, respectively.
For `C[C@]12CC[C@H](O[N+](=O)[O-])CC1=CC[C@@H]1[C@@H]2CC[C@]2(C)C(=O)CC[C@@H]12`, the IC50 in the series with Trypanosoma cruzi [1] was 33.2 µM; in the series with Trypanosoma cruzi [2], 0.2 µM; in the series on Trypanosoma cruzi [4], over 300 µM. Further, the CC50 at 48 h in series [3] (J774.2 cells) was 0.2 µM. The selectivity ratio in “in vitro [5]” (J774.2 cells) was found to be 0.01; in the series “in vitro [6]” (J774.2 cells), 1.
Consider `C#C[C@]1(O[N+](=O)[O-])CC[C@H]2[C@@H]3CC=C4C[C@@H](O[N+](=O)[O-])CC[C@]4(CO[N+](=O)[O-])[C@H]3CC[C@@]21C`, for which the values for the IC50 in the series on Trypanosoma cruzi [1], in the series with Trypanosoma cruzi [2] and in the series with Trypanosoma cruzi [4] were 2.12 µM, 321 µM and over 300 µM, respectively. For the same molecule, in series [3] (J774.2 cells), the CC50 at 48 h amounted to 22.3 µM. Further, the results for the selectivity ratio in the series “in vitro [5]” (J774.2 cells) and in the series “in vitro [6]” (J774.2 cells) were 11 and 0.07, respectively.
Consider `C[C@]12CC[C@H]3[C@@H](CC=C4C[C@@H](O[N+](=O)[O-])CC[C@@]43CO[N+](=O)[O-])[C@@H]1CCC2=O`, for which the IC50 is 48.3 µM in the series with Trypanosoma cruzi [1], 430 µM with Trypanosoma cruzi [2] and 295 µM in the series on Trypanosoma cruzi [4]. For the same molecule, the CC50 at 48 h in series [3] (J774.2 cells) is 130 µM. Moreover, the selectivity ratio turned out to be 2.68 in “in vitro [5]” (J774.2 cells) and 0.3 in the series “in vitro [6]” (J774.2 cells).
On to `C[C@]12CC[C@H]3[C@@H](CC=C4C[C@@H](O[N+](=O)[O-])CC[C@@]43C)[C@@H]1CC[C@@H]2O[N+](=O)[O-]`, for which the figures for the IC50 with Trypanosoma cruzi [1], with Trypanosoma cruzi [2] and with Trypanosoma cruzi [4] were 347 µM, 77 µM and over 300 µM, respectively. Moreover, in series [3] (J774.2 cells), the CC50 at 48 h came to 151 µM. For the same molecule, the selectivity ratio in “in vitro [5]” (J774.2 cells) amounted to 0.44; in the series “in vitro [6]” (J774.2 cells), 1.89.
For `C[C@]12CC[C@H]3[C@@H](CC=C4C[C@@H](O)CC[C@@]43CO)[C@@H]1CCC2=O`, the values for the IC50 with Trypanosoma cruzi [1], in the series on Trypanosoma cruzi [2] and with Trypanosoma cruzi [4] were 36.2 µM, 476 µM and over 300 µM, respectively. In series [3] (J774.2 cells), the CC50 at 48 h worked out at 75.4 µM. Moreover, the selectivity ratio in the series “in vitro [5]” (J774.2 cells) is 2.08; in the series “in vitro [6]” (J774.2 cells), 0.15.
Regarding `C[C@]12CC[C@H]3[C@@H](CC=C4C[C@@H](O)CC[C@@]43C)[C@@H]1CC[C@@H]2O` [ANDROSTENEDIOL], the IC50 in the series on Trypanosoma cruzi [1] is 2.23 µM; with Trypanosoma cruzi [2], 37.1 µM; with Trypanosoma cruzi [4], over 300 µM. Also, the CC50 at 48 h in series [3] (j774.2) was 278 µM. For the same molecule, the selectivity ratio turned out to be 125 in the series “in vitro [5]” and 7.5 in the series “in vitro [6]”.
Take `O=C(Cn1ccnc1[N+](=O)[O-])NCc1ccccc1` [BENZNIDAZOLE]: the IC50 in the series on Trypanosoma cruzi [2] stood at 39.1 µM.
Consider `CC1CS(=O)(=O)CCN1/N=C/c1ccc([N+](=O)[O-])o1` (stereo unspecified) [NIFURTIMOX], for which the IC50 turned out to be 7.09 µM in the series on Trypanosoma cruzi [1] and 19.3 µM with Trypanosoma cruzi [2].
Regarding `C[C@]12CC[C@H](O)CC1=CC[C@@H]1[C@@H]2CC[C@]2(C)C(=O)CC[C@@H]12` [PRASTERONE], the IC50 in the series with Trypanosoma cruzi [1] is 62 µM; in the series on Trypanosoma cruzi [2], 13.8 µM; in the series with Trypanosoma cruzi [4] it was over 300 µM. Further, the CC50 at 48 h in series [3] (J774.2 cells) amounted to 198 µM. The results for the selectivity ratio in “in vitro [5]” (J774.2 cells) and in the series “in vitro [6]” (J774.2 cells) were 3.19 and 14.3, respectively.
